Experimental data: patent publication US12606544B2, “JAK1 selective kinase inhibitor” (DIZAL (JIANGSU) PHARMACEUTICAL CO., LTD., priority 2019, dated 2026)

How the values were obtained:
[1] = Pharmacokinetics in plasma and lung in mouse, intratracheal instillation; type: in vivo; conditions: male CD1 mice; for half-life / Kp at 5 min / Kp at 1 h: mouse; for half-life: lung, intratracheal instillation, read-out: Lung T1/2 (converted); for Kp at 5 min / Kp at 1 h: lung/plasma, other: intratracheal instillation; for Kp at 5 min: read-out: Conc. Ratio (Lung/Plasma) 5 min; for Kp at 1 h: read-out: Conc. Ratio (Lung/Plasma) 1 hr
Protocol: Lung PK of the compounds were tested via Intratracheal (IT) instillation administration in male CD1 Mice. Plasma and lung levels of test compounds and ratios thereof were determined in the following manner. Test compounds were dosed cassettely as the formulation of 0.4 mg/mL suspension of 0.5% HPMC, 0.1% Tween 80 in saline. The animal was anesthetized using 5% of isoflurane for 5 min, open its mouth and take out the tongue, the light was focused on the neck of the mouse and localize the trachea, and the syringe was inserted into the trachea while the trachea is in the open state, and the test compounds were inject into the trachea. At various time points (typically 5 min, 1, 4, 24 hours) post dosing, approximately 0.250 mL blood samples were removed via cardiac puncture and intact lungs were excised from the mice. Each blood sample was transferred into plastic micro centrifuge tubes containing K2EDTA. Blood samples were then centrifuged (Eppendorf centrifuge, 5804R) for 4 minutes at approximately 12,000 rpm at 4° C. to collect plasma. The mice will be fully exsanguinated prior to tissue collection. Lung samples will be collected at adopted time point and the whole lung were weighted and homogenized. Concentrations of test compounds in the plasma and lung samples were analyzed using a LC-MS/MS method. WinNonlin (Phoenix™) or other similar software will be used for pharmacokinetic calculations.

phosphorylation of STAT6 = experiment: Cellular p-STAT6 assay, IL-13 stimulated THP-1 cells, flow cytometry; type: cell-based; conditions: Homo sapiens, THP-1, THP-1 cells, IL-13 10 ng/ml; read-out: pSTAT6 IC50
How it was run: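 THP-1 cells (2×10^5/well, RPMI1640 + 10% FBS) preincubated 60 min at room temperature with compound (1 μM to 0.3 nM), then stimulated 30 min with IL-13 at 10 ng/ml. Fixed, methanol-permeabilized cells stained with PE anti-pSTAT6 and read by flow cytometry; IC50 from dose-response curves.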

JAK3 = biological target: T1, JAK3 (Homo sapiens, UniProt P52333); experiment: Lance Ultra Kinase Assay, recombinant JAK3; type: biochemical; conditions: 5 mM ATP
T1 construct: purchased Carna Biosciences
T1 sequence (P52333 1-1124): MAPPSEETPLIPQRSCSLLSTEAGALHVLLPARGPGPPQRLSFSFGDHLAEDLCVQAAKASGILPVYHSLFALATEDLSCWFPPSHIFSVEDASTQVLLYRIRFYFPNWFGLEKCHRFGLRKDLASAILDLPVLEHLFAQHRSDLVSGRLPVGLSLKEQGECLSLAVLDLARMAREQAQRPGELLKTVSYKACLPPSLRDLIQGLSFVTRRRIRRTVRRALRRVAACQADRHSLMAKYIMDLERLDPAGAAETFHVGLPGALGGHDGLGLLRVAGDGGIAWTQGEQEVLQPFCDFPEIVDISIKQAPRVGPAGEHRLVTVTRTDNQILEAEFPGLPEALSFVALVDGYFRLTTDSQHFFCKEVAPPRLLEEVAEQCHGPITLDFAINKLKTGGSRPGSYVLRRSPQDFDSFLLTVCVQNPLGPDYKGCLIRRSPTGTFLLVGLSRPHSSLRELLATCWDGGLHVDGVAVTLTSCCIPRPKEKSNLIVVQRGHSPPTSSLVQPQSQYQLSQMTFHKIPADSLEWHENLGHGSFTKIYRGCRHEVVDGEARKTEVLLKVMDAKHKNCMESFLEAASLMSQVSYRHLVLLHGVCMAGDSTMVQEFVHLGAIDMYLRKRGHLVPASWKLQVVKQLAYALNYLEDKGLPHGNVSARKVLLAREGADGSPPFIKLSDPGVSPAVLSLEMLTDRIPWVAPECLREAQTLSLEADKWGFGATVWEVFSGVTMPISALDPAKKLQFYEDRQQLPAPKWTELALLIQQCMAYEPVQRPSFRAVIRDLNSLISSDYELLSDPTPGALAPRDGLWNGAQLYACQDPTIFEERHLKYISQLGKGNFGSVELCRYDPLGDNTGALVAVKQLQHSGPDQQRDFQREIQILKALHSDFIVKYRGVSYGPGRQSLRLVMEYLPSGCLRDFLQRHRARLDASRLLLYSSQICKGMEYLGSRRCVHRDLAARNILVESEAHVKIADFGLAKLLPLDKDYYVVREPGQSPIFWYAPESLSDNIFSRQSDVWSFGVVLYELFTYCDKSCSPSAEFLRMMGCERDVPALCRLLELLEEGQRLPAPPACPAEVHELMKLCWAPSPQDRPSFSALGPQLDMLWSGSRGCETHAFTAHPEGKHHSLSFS
How it was run: (§1)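 Each recombinant kinase preincubated with or without compound 15 min at room temperature, then reaction started with 5 mM ATP and substrate peptide for 60 min. Stopped with EDTA-containing detection mix; TR-FRET read at ex 320 nm, 665/615 nm emission ratio taken as kinase activity.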

[2] = Metabolic stability in rat hepatocytes; type: in vitro ADME; conditions: 1 μM compound, male rat hepatocytes
Protocol: (§2) Rat hepatocytes in male gender and human liver microsome were obtained from commercial vendors (e.g., BioreclamationIVT) and stored at −150° C. prior to use.
For metabolic stability assay with rat heptatocytes, vials of cryopreserved hepatocytes or microsome were removed from storage, ensured that vials remain at cryogenic temperatures. 1 μM of each test compound (in Acetonitrile; 0.01% DMSO) was incubated with 250 μL of hepatocyte cells (1×10^6 cells/ml) in a 96 deep well plate. […] 40 μL of supernatant was diluted to 200 μL with pure water and analyzed using LC-MS/MS.
In vitro hepatocyte clearance was estimated based on determination of elimination half-life (T1/2) of compounds disappearance from their initial concentrations. Peak area ratios of each compound (test or control) to IS was calculated. Ln (% Control) versus Incubation Time (min) curve was plotted, and the slope of a linear fitting line was calculated. Drug elimination rate constant k (min−1), T1/2 (min), and in vitro intrinsic clearance CLint (μL/min/E6) was calculated according to the following equations: k=−slope T1/2=0.693/k CLint=k/Chep Where Chep (cells×μL^−1) is the cell concentration in the incubation system.

[3] = Metabolic stability in human liver microsome; type: in vitro ADME; conditions: human, pooled human liver microsomes, pH 7.4, 1 μM compound, 1 mg/mL microsomes, NADPH
Protocol: as §2
For metabolic stability assay with human liver microsome, 1 μM of each test compound was incubated with 1 mg/mL of microsomes (Pooled HLM with 20 mg/ml protein cone) at 37° C. in 250 μL of buffer (100 mM phosphate buffer, pH-7.4) containing 1 mM NADPH solution. […] was quenched with 5 volumes chilled acetonitrile at different time points 0, 0.5, 5, 10, 15, 20 and 30 min in a fresh 96 well plate. The quench plate was centrifuged at 4000 rpm for 15 min. 40 μL of supernatant was diluted to 200 μL with pure water and analyzed using LC-MS/MS. […]

TYK2 = biological target: T2, TYK2 (Homo sapiens, UniProt P29597); experiment: Lance Ultra Kinase Assay, recombinant TYK2; type: biochemical; conditions: 5 mM ATP
T2 construct: purchased Carna Biosciences
How it was run: as §1

JAK2 = biological target: T3, JAK2 (Homo sapiens, UniProt O60674); experiment: Lance Ultra Kinase Assay, recombinant JAK2; type: biochemical; conditions: 5 mM ATP
T3 construct: purchased Carna Biosciences
How it was run: as §1

JAK1 = biological target: T4, JAK1 (Homo sapiens, UniProt P23458); experiment: Lance Ultra Kinase Assay, recombinant JAK1; type: biochemical; conditions: 5 mM ATP
T4 construct: purchased Carna Biosciences
How it was run: as §1

T4 sequence (P23458 whole entry): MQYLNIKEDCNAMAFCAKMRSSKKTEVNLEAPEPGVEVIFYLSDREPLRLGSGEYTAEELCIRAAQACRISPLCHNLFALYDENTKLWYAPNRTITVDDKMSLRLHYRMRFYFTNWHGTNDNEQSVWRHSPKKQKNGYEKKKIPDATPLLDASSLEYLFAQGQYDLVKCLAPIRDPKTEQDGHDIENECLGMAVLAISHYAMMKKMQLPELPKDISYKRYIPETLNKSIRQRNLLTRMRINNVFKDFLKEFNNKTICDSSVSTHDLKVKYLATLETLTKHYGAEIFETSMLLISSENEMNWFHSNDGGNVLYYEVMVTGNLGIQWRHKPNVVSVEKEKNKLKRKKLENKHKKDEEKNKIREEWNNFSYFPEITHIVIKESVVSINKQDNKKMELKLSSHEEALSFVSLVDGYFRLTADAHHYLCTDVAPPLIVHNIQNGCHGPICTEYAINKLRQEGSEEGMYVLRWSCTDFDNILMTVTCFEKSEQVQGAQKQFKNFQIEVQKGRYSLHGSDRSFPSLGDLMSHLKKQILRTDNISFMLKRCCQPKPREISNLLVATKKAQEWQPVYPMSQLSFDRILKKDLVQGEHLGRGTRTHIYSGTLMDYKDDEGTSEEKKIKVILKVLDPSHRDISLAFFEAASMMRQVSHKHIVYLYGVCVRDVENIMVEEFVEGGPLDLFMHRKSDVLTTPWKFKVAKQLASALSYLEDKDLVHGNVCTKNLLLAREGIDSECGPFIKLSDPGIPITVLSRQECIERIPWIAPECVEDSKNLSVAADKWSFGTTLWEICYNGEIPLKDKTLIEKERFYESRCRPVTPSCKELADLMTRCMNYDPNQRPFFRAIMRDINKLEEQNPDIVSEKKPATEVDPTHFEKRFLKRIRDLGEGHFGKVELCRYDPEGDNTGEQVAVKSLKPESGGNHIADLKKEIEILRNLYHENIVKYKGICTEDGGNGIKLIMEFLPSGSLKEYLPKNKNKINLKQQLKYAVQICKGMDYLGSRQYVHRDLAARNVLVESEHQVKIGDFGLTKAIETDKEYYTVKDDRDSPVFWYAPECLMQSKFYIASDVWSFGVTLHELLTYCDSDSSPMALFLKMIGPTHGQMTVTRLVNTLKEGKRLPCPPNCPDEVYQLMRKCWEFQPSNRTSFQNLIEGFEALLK
T2 sequence (P29597 whole entry): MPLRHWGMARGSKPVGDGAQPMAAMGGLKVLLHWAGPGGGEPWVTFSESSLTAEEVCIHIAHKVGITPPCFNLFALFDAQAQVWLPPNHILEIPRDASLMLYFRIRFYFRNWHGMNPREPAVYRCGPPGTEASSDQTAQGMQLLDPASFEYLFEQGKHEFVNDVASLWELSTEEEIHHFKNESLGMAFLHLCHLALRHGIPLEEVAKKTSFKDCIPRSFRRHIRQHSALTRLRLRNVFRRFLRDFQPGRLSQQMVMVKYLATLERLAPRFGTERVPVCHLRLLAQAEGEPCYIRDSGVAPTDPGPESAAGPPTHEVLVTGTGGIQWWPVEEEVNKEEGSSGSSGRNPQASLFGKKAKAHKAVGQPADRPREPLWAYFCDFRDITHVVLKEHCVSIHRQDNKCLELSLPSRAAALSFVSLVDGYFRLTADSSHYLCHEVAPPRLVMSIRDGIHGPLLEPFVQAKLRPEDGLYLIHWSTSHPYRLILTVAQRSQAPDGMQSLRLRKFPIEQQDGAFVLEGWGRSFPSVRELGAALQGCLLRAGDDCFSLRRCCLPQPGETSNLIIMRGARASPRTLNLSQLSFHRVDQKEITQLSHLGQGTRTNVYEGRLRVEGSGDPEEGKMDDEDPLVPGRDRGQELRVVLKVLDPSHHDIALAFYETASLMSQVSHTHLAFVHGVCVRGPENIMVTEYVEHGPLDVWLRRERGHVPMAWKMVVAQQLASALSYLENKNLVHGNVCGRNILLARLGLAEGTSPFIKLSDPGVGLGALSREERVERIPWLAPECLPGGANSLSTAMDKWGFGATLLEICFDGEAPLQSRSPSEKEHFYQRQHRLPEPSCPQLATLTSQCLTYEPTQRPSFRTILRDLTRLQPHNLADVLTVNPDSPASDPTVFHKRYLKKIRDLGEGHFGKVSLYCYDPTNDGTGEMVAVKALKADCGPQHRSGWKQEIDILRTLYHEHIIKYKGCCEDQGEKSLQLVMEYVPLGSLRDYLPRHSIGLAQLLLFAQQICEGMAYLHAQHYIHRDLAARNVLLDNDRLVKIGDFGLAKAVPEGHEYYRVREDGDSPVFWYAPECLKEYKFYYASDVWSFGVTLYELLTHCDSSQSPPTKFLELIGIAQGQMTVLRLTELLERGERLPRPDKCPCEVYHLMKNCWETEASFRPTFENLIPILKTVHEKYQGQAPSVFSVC
T3 sequence (O60674 whole entry): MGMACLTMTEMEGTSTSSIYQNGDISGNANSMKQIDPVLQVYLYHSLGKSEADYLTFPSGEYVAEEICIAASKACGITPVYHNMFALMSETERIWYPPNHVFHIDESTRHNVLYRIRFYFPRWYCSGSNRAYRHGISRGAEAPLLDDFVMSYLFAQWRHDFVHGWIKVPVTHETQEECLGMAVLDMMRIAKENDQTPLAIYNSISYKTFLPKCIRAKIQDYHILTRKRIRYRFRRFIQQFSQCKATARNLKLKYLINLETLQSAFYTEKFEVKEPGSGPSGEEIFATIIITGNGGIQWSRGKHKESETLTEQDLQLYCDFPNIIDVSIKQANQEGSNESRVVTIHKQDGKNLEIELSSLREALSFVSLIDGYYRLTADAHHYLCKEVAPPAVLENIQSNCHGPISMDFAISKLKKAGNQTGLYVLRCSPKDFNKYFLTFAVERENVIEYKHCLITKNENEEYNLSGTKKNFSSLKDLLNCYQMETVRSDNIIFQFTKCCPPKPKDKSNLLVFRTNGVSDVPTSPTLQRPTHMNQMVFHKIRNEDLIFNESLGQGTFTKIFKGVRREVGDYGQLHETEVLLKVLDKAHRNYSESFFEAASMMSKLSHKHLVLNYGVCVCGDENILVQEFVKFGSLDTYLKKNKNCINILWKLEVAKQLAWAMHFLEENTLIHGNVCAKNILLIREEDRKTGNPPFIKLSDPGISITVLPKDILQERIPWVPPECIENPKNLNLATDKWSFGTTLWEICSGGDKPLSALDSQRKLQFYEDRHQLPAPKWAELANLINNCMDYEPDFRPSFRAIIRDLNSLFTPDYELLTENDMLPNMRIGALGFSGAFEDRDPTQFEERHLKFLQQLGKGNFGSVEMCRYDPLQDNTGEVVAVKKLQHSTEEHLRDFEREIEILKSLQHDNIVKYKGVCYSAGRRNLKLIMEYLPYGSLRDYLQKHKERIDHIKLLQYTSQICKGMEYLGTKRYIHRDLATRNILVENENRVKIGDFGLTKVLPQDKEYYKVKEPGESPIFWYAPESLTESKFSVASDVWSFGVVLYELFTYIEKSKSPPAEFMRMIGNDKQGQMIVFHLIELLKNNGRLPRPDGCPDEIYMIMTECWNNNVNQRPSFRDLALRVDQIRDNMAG

| SMILES | % Dose in Lung 5 min [1] [%] | % Dose in Lung 1 hr [1] [%] | half-life [1] [h] | Kp at 5 min [1] | Kp at 1 h [1] | IC50 (phosphorylation of STAT6) [µM] | IC50 (JAK3) [µM] | Rat Hepatocyte CLint [2] [μL/min/10^6 cells] | microsomal CLint at 1 μM [3] [µL/min/mg] | IC50 (TYK2) [µM] | IC50 (JAK2) [µM] | IC50 (JAK1) [µM] |
| --- | --- | --- | --- | --- | --- | --- | --- | --- | --- | --- | --- | --- |
| COC[C@H](C(=O)Nc1cccc2c(-c3nc(Nc4ccc(NC(=O)CO)nc4)ncc3F)c[nH]c12)N1CCN(C)CC1 [Example 8, (R)-N-(3-(5-fluoro-2-((6-(2-hydroxyacetamido)pyridin-3-yl)amino)pyrimidin-4-yl)-1H-indol-7-yl)-3-methoxy-2-(4-methylpiperazin-1-yl)propanamide] | 62.7 | 13.4 | 3.5 | 296 | 1590 | 0.0062 | > 10 | 38.4 | 7.2 | 0.85 | 0.183 | 0.00016 |
| COC[C@H](C(=O)Nc1cccc2c(-c3nc(Nc4ccc5sc(CO)nc5c4)ncc3F)c[nH]c12)N1CCN(C)CC1 [Example 38, (R)-N-(3-(5-fluoro-2-((2-(hydroxymethyl)benzo[d]thiazol-5-yl)amino)pyrimidin-4-yl)-1H-indol-7-yl)-3-methoxy-2-(4-methylpiperazin-1-yl)propanainide] | 79.9 | 19.4 | 3.9 | 965 | 1780 | 0.0118 | > 10 | 117.1 | 10.9 | 0.726 | 0.065 | 0.00013 |
| CCC(=O)Nc1ccc(Nc2ncc(F)c(-c3c[nH]c4c(NC(=O)[C@@H](COC)N5CCN(C)CC5)cccc34)n2)cn1 [Example 5, (R)-N-(3-(5-fluoro-2-((6-propionamidopyridin-3-yl)amino)pyrimidin-4-yl)-1H-indol-7-yl)-3-methoxy-2-(4-methylpiperazin-1-yl)propanamide] | 101.6 | 54.0 | 6.1 | 2100 | 2940 | 0.0051 | > 10 | 11.0 | 73.9 | 0.764 | 0.268 | 0.00019 |
| COC[C@H](C(=O)Nc1cccc2c(-c3nc(Nc4ccnc(CO)c4)ncc3F)c[nH]c12)N1CCN(C)CC1 [Example 2, (R)-N-(3-(5-fluoro-2-((2-(hydroxymethyl)pyridin-4-yl)amino)pyrimidin-4-yl)-1H-indol-7-yl)-3-methoxy-2-(4-methylpiperazin-1-yl)propanamide] | 18.1 | 13.4 | 29.9 | 399 | 3260 | 0.0043 | > 10 | 9.5 | 10.6 | 1.09 | 0.202 | 0.00025 |

Second part, the compound after the results:

| % Dose in Lung 5 min [1] [%] | % Dose in Lung 1 hr [1] [%] | half-life [1] [h] | Kp at 5 min [1] | Kp at 1 h [1] | IC50 (phosphorylation of STAT6) [µM] | IC50 (JAK3) [µM] | Rat Hepatocyte CLint [2] [μL/min/10^6 cells] | microsomal CLint at 1 μM [3] [µL/min/mg] | IC50 (TYK2) [µM] | IC50 (JAK2) [µM] | IC50 (JAK1) [µM] | SMILES |
| --- | --- | --- | --- | --- | --- | --- | --- | --- | --- | --- | --- | --- |
| 58.6 | 23.0 | 4.6 | 824 | 1440 | 0.0121 | > 10 | 36.4 | 50.4 | 2.51 | 0.219 | 0.00021 | COC[C@H](C(=O)Nc1cccc2c(-c3nc(Nc4ccc(-c5cnco5)nc4)ncc3F)c[nH]c12)N1CCN(C)CC1 [Example 40, (R)-N-(3-(5-fluoro-2-((6-(oxazol-5-yl)pyridin-3-yl)amino)pyrimidin-4-yl)-1H-indol-7-yl)-3-methoxy-2-(4-methylpiperazin-1-yl)propanamide] |
| – | – | – | – | – | 0.0176 | > 10 | 4.6 | 7 | 1.34 | 0.158 | 0.00025 | COC[C@H](C(=O)Nc1cccc2c(-c3nc(Nc4ccc(CCO)nc4)ncc3F)c[nH]c12)N1CCN(C)CC1 [Example 60, (R)-N-(3-(5-fluoro-2-((6-(2-hydroxyethyl)pyridin-3-yl)amino)pyrimidin-4-yl)-1H-indol-7-yl)-3-methoxy-2-(4-methylpiperazin-1-yl)propanamide] |
